Source: US20200016174A1, “PHARMACEUTICAL COMPOSITION” (MEXICHEM FLUOR S.A. DE C.V., priority 2016, published 2020)
Where a name gives a salt, the structure may show the parent alone.

What was measured:
Assay type in all cases: physicochemical
[1] = In vitro aerosolization performance (Next Generation Impactor) of beclomethasone dipropionate / formoterol fumarate dihydrate combination MDI formulations; conditions: after 1 month at ambient conditions, NGI 30 L/min
[2] = Chemical stability (total impurities) of beclomethasone dipropionate formulations with varying ethanol and glycerol in uncoated aluminium cans; conditions: for % Total Imps T = 0 / % Total Imps T = 1 M @ 40° C./75% RH / % Total Imps T = 3 M @ 40° C./75% RH: uncoated aluminium cans
Description: A number of experiments were conducted to investigate the stability of beclomethasone dipropionate in HFA-134a and HFA-152a.
Anhydrous ethanol in an amount of 5, 10 or 15 weight % based on the total weight of the formulation and glycerol in an amount of 0, 1 or 2 weight %, again based on the total weight of the formulation, were then added to the canisters. […] The nominal dose of beclomethasone dipropionate was […].

[3] = In vitro aerosolization performance (Next Generation Impactor) of beclomethasone dipropionate MDI formulations in HFA-152a with varying ethanol and glycerol; conditions: immediately after preparation
Description: A number of experiments were conducted to investigate the effects of glycerol on the in vitro aerosolization performance of drug formulations of beclomethasone dipropionate delivered from a metered dose inhaler (MDI) using HFA-152a as the propellant.
Pharmaceutical formulations of beclomethasone dipropionate were prepared in HFA-152a (Mexichem, UK). […] Anhydrous ethanol in an amount of 5, 10 or 15 weight % based on the total weight of the formulation and glycerol in an amount of 0, 1 or 2 weight %, again based on the total weight of the formulation, were then added to the canisters. […] The nominal dose of beclomethasone dipropionate was […].

[4] = combination formulation in HFA-134a and 10 weight % ethanol
[5] = combination formulation in HFA-152a and 10 weight % ethanol
[6] = HFA-134a, 5 wt. % ethanol, 0 wt. % glycerol
[7] = HFA-134a, 5 wt. % ethanol, 1 wt. % glycerol
[8] = HFA-134a, 5 wt. % ethanol, 2 wt. % glycerol
[9] = HFA-134a, 10 wt. % ethanol, 0 wt. % glycerol
[10] = HFA-134a, 10 wt. % ethanol, 1 wt. % glycerol
[11] = HFA-134a, 10 wt. % ethanol, 2 wt. % glycerol
[12] = HFA-134a, 15 wt. % ethanol, 0 wt. % glycerol
[13] = HFA-134a, 15 wt. % ethanol, 1 wt. % glycerol
[14] = HFA-134a, 15 wt. % ethanol, 2 wt. % glycerol
[15] = HFA-152a, 5 wt. % ethanol, 0 wt. % glycerol
[16] = HFA-152a, 5 wt. % ethanol, 1 wt. % glycerol
[17] = HFA-152a, 5 wt. % ethanol, 2 wt. % glycerol
[18] = HFA-152a, 10 wt. % ethanol, 0 wt. % glycerol
[19] = HFA-152a, 10 wt. % ethanol, 1 wt. % glycerol
[20] = HFA-152a, 10 wt. % ethanol, 2 wt. % glycerol
[21] = HFA-152a, 15 wt. % ethanol, 0 wt. % glycerol
[22] = HFA-152a, 15 wt. % ethanol, 1 wt. % glycerol
[23] = HFA-152a, 15 wt. % ethanol, 2 wt. % glycerol
[24] = 5 wt. % ethanol, 0 wt. % glycerol
[25] = 5 wt. % ethanol, 1 wt. % glycerol
[26] = 5 wt. % ethanol, 2 wt. % glycerol
[27] = 10 wt. % ethanol, 0 wt. % glycerol
[28] = 10 wt. % ethanol, 1 wt. % glycerol
[29] = 10 wt. % ethanol, 2 wt. % glycerol
[30] = 15 wt. % ethanol, 0 wt. % glycerol
[31] = 15 wt. % ethanol, 1 wt. % glycerol
[32] = 15 wt. % ethanol, 2 wt. % glycerol

Q: For `CCC(=O)OCC(=O)[C@@]1(OC(=O)CC)[C@@H](C)C[C@H]2[C@@H]3CCC4=CC(=O)C=C[C@]4(C)[C@@]3(Cl)[C@@H](O)C[C@@]21C` [beclomethasone dipropionate], which FPFED % [1, 4] is on record?
A: 63.16%

Q: What about the “Fine Particle Dose” value [1, 4] of the same compound?
A: 98.92 µg

Q: And the “MMAD ± GSD” value [1, 4]?
A: 1.41 ± 1.95 μm

Q: And the FPFED % [1, 5]?
A: 55.67%

Q: What about the “Fine Particle Dose” value [1, 5] of the same compound?
A: 105.11 µg

Q: What about the “MMAD ± GSD” value [1, 5] of the same compound?
A: 1.57 ± 1.98 μm

Q: And the “% Total Imps T = 0” value [2, 6]?
A: 0.89%

Q: What about the “% Total Imps T = 1 M @ 40° C./75% RH” value [2, 6] of the same compound?
A: 1.58%

Q: And the “% Total Imps T = 3 M @ 40° C./75% RH” value [2, 6]?
A: 2.08%

Q: What about the “% Total Imps T = 0” value [2, 7] of the same compound?
A: 0.34%

Q: And the “% Total Imps T = 1 M @ 40° C./75% RH” value [2, 7]?
A: 1.91%

Q: And the “% Total Imps T = 3 M @ 40° C./75% RH” value [2, 7]?
A: 2.14%

Q: And the “% Total Imps T = 0” value [2, 8]?
A: 0.55%

Q: And the “% Total Imps T = 1 M @ 40° C./75% RH” value [2, 8]?
A: 0.78%

Q: And the “% Total Imps T = 3 M @ 40° C./75% RH” value [2, 8]?
A: 1.18%

Q: And the “% Total Imps T = 0” value [2, 9]?
A: 1.16%

Q: What about the “% Total Imps T = 1 M @ 40° C./75% RH” value [2, 9] of the same compound?
A: 1.82%

Q: And the “% Total Imps T = 3 M @ 40° C./75% RH” value [2, 9]?
A: 2.21%

Q: What about the “% Total Imps T = 0” value [2, 10] of the same compound?
A: 1.34%

Q: What about the “% Total Imps T = 1 M @ 40° C./75% RH” value [2, 10] of the same compound?
A: 2.25%

Q: What about the “% Total Imps T = 3 M @ 40° C./75% RH” value [2, 10] of the same compound?
A: 2.49%

Q: And the “% Total Imps T = 0” value [2, 11]?
A: 1.49%

Q: What about the “% Total Imps T = 1 M @ 40° C./75% RH” value [2, 11] of the same compound?
A: 1.97%

Q: What about the “% Total Imps T = 3 M @ 40° C./75% RH” value [2, 11] of the same compound?
A: 2.35%

Q: What about the “% Total Imps T = 0” value [2, 12] of the same compound?
A: 1.08%

Q: What about the “% Total Imps T = 1 M @ 40° C./75% RH” value [2, 12] of the same compound?
A: 2.35%

Q: What about the “% Total Imps T = 3 M @ 40° C./75% RH” value [2, 12] of the same compound?
A: 4.21%

Q: What about the “% Total Imps T = 0” value [2, 13] of the same compound?
A: 2.88%

Q: And the “% Total Imps T = 1 M @ 40° C./75% RH” value [2, 13]?
A: 3.15%

Q: What about the “% Total Imps T = 3 M @ 40° C./75% RH” value [2, 13] of the same compound?
A: 3.99%

Q: And the “% Total Imps T = 0” value [2, 14]?
A: 2.95%

Q: What about the “% Total Imps T = 1 M @ 40° C./75% RH” value [2, 14] of the same compound?
A: 4.22%

Q: What about the “% Total Imps T = 3 M @ 40° C./75% RH” value [2, 14] of the same compound?
A: 4.89%

Q: And the “% Total Imps T = 0” value [2, 15]?
A: 0.08%

Q: What about the “% Total Imps T = 1 M @ 40° C./75% RH” value [2, 15] of the same compound?
A: 0.16%

Q: What about the “% Total Imps T = 3 M @ 40° C./75% RH” value [2, 15] of the same compound?
A: 0.35%

Q: And the “% Total Imps T = 0” value [2, 16]?
A: 0.11%

Q: And the “% Total Imps T = 1 M @ 40° C./75% RH” value [2, 16]?
A: 0.15%

Q: What about the “% Total Imps T = 3 M @ 40° C./75% RH” value [2, 16] of the same compound?
A: 0.28%

Q: What about the “% Total Imps T = 0” value [2, 17] of the same compound?
A: 0.09%

Q: And the “% Total Imps T = 1 M @ 40° C./75% RH” value [2, 17]?
A: 0.21%

Q: And the “% Total Imps T = 3 M @ 40° C./75% RH” value [2, 17]?
A: 0.34%

Q: What about the “% Total Imps T = 0” value [2, 18] of the same compound?
A: 0.21%

Q: What about the “% Total Imps T = 1 M @ 40° C./75% RH” value [2, 18] of the same compound?
A: 0.35%

Q: What about the “% Total Imps T = 3 M @ 40° C./75% RH” value [2, 18] of the same compound?
A: 0.42%

Q: And the “% Total Imps T = 0” value [2, 19]?
A: 0.34%

Q: What about the “% Total Imps T = 1 M @ 40° C./75% RH” value [2, 19] of the same compound?
A: 0.36%

Q: And the “% Total Imps T = 3 M @ 40° C./75% RH” value [2, 19]?
A: 0.55%

Q: What about the “% Total Imps T = 0” value [2, 20] of the same compound?
A: 0.23%

Q: What about the “% Total Imps T = 1 M @ 40° C./75% RH” value [2, 20] of the same compound?
A: 0.29%

Q: What about the “% Total Imps T = 3 M @ 40° C./75% RH” value [2, 20] of the same compound?
A: 0.31%

Q: What about the “% Total Imps T = 0” value [2, 21] of the same compound?
A: 0.56%

Q: And the “% Total Imps T = 1 M @ 40° C./75% RH” value [2, 21]?
A: 0.89%

Q: What about the “% Total Imps T = 3 M @ 40° C./75% RH” value [2, 21] of the same compound?
A: 1.11%

Q: And the “% Total Imps T = 0” value [2, 22]?
A: 0.66%

Q: What about the “% Total Imps T = 1 M @ 40° C./75% RH” value [2, 22] of the same compound?
A: 0.79%

Q: And the “% Total Imps T = 3 M @ 40° C./75% RH” value [2, 22]?
A: 1.56%

Q: What about the “% Total Imps T = 0” value [2, 23] of the same compound?
A: 0.72%

Q: What about the “% Total Imps T = 1 M @ 40° C./75% RH” value [2, 23] of the same compound?
A: 0.89%

Q: What about the “% Total Imps T = 3 M @ 40° C./75% RH” value [2, 23] of the same compound?
A: 1.48%

Q: What about the “stability with HFA-152a as propellant rather than HFA-134a” value ([2]; all investigated levels of ethanol and glycerol, comparison of Tables 10 and 11) of the same compound?
A: significantly higher

Q: And the FPFED [3, 24]?
A: 65.17%

Q: What about the FPM [3, 24] of the same compound?
A: 114.36 µg

Q: What about the “MMAD (μm) ± GSD” value [3, 24] of the same compound?
A: 1.27 ± 1.80 μm

Q: And the FPFED [3, 25]?
A: 67.97%

Q: And the FPM [3, 25]?
A: 123.94 µg

Q: And the “MMAD (μm) ± GSD” value [3, 25]?
A: 1.55 ± 1.93 μm

Q: What about the FPFED [3, 26] of the same compound?
A: 65.69%

Q: What about the FPM [3, 26] of the same compound?
A: 120.25 µg

Q: And the “MMAD (μm) ± GSD” value [3, 26]?
A: 1.62 ± 2.06 μm

Q: And the FPFED [3, 27]?
A: 59.47%

Q: What about the FPM [3, 27] of the same compound?
A: 117.15 µg

Q: What about the “MMAD (μm) ± GSD” value [3, 27] of the same compound?
A: 1.33 ± 1.84 μm

Q: And the FPFED [3, 28]?
A: 58.64%

Q: And the FPM [3, 28]?
A: 116.83 µg

Q: And the “MMAD (μm) ± GSD” value [3, 28]?
A: 2.09 ± 1.92 μm

Q: What about the FPFED [3, 29] of the same compound?
A: 55.76%

Q: What about the FPM [3, 29] of the same compound?
A: 104.23 µg

Q: What about the “MMAD (μm) ± GSD” value [3, 29] of the same compound?
A: 2.19 ± 2.12 μm

Q: What about the FPFED [3, 30] of the same compound?
A: 50.99%

Q: And the FPM [3, 30]?
A: 102.86 µg

Q: And the “MMAD (μm) ± GSD” value [3, 30]?
A: 1.42 ± 2.02 μm

Q: What about the FPFED [3, 31] of the same compound?
A: 48.85%

Q: And the FPM [3, 31]?
A: 96.11 µg

Q: And the “MMAD (μm) ± GSD” value [3, 31]?
A: 2.29 ± 2.06 μm

Q: And the FPFED [3, 32]?
A: 43.57%

Q: What about the FPM [3, 32] of the same compound?
A: 83.04 µg

Q: What about the “MMAD (μm) ± GSD” value [3, 32] of the same compound?
A: 2.59 ± 2.12 μm

Q: Which results are given for `COc1ccc(CC(C)NCC(O)c2ccc(O)c(NC=O)c2)cc1` (stereo not shown) [formoterol fumarate dihydrate]?
A: FPFED % [1, 4]: 66.35%; Fine Particle Dose [1, 4]: 3.67 µg; MMAD ± GSD [1, 4]: 1.36 ± 2.00 μm; FPFED % [1, 5]: 60.01%; Fine Particle Dose [1, 5]: 3.57 µg; MMAD ± GSD [1, 5]: 1.51 ± 2.08 μm
